Earlier results in patent publication US9884844B2 (priority 2012, dated 2018).

Settings: rather increase it at high dose

Q: With `O=C1NCN(c2ccccc2)C12CCN([C@@H]1CC[C@H]3CCCc4cccc1c43)CC2` [Ro64-6198] as the compound, how does the “effect on alcohol drinking” value read?
A: failed to decrease alcohol drinking
